Measured values reported in ChEMBL document CHEMBL1135372, “3-Aryl pyridone derivatives. Potent and selective kappa opioid receptor agonists” (Bioorg Med Chem Lett, 2002).

Assays:
[1] = target: T1, Kappa-type opioid receptor (Homo sapiens, UniProt P41145); assay: Binding affinity towards kappa opioid receptor by the displacement of [125I]-(D-Pro10)-Dynorphin A
[2] = target: Delta-type opioid receptor (Homo sapiens, UniProt P41143); assay: Binding affinity towards delta opioid receptor by the displacement of [125I]deltorphin
Delta-type opioid receptor, sequence (P41143 whole entry): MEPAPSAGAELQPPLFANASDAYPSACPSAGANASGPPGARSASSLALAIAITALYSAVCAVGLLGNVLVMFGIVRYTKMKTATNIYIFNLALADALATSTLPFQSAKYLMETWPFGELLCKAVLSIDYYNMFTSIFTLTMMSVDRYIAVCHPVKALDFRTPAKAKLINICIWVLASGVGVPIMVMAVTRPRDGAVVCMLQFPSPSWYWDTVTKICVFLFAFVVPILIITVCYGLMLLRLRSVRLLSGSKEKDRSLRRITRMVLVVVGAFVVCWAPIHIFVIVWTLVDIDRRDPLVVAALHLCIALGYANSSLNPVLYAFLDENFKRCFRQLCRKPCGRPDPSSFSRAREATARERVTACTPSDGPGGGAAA

Mu-type opioid receptor = Mu-type opioid receptor (Homo sapiens, UniProt P35372); assay: Binding affinity towards mu opioid receptor by the displacement of [125I]Enkephalin
Mu-type opioid receptor, sequence (P35372 whole entry): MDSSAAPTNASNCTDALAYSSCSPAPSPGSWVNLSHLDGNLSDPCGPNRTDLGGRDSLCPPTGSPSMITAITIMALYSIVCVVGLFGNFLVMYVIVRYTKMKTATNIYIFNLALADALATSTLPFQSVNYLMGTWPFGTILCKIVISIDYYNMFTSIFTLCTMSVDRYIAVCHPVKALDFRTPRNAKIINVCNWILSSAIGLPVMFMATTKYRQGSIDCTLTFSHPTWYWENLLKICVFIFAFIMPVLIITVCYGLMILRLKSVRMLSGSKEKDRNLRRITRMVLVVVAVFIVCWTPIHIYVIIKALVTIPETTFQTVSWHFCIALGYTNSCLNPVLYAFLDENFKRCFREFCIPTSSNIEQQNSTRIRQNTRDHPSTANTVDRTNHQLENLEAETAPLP

[3] = target: T1, Kappa-type opioid receptor; assay: Functional activity in HEK293 cells overexpressing the human kappa opioid receptor was determined using a radiolabeled [35S]GTP-gamma-S, assay; assay type: cell-based

T1 sequence (P41145 whole entry): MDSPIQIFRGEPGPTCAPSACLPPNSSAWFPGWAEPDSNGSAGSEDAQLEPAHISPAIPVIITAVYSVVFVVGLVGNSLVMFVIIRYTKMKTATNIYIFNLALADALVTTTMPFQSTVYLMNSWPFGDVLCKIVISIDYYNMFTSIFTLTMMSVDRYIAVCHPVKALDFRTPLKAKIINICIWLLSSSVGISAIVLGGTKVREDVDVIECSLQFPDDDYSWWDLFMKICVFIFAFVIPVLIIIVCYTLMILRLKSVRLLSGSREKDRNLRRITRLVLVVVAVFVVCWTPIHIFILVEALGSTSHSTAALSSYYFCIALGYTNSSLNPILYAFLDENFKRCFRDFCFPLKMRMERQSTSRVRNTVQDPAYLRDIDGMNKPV

Structure (SMILES)	IC50 [1] [nM]	IC50 [2] [nM]	IC50 (Mu-type opioid receptor) [nM]	ED50 [3] [nM]
O=c1c(-c2cc3ccccc3o2)cccn1C(CN1CCCC1)c1ccccc1 (centres undefined)	271			
O=c1c(-c2cccc(Cl)c2)cccn1C(CN1CCCC1)c1ccccc1 (centres undefined)	2.4	> 10000	308	
O=c1c(-c2ccc(C(F)(F)F)cc2)cccn1C(CN1CCCC1)c1ccccc1 (centres undefined)	8.7	> 10000	2720	49.4
COc1ccc(OC)c(-c2cccn(C(CN3CCCC3)c3ccccc3)c2=O)c1 (centres undefined)	3.44	> 10000	> 5000	
COc1ccccc1-c1cccn(C(CN2CCCC2)c2ccccc2)c1=O (centres undefined)	19.5	> 10000	1200	
Cc1cccc(-c2cccn(C(CN3CCCC3)c3ccccc3)c2=O)c1 (centres undefined)	79.3	639	> 10000	
COc1ccc(Cl)cc1-c1cccn(C(CN2CCCC2)c2ccccc2)c1=O (centres undefined)	1.5	4170	1240	
N#Cc1cccc(-c2cccn(C(CN3CCCC3)c3ccccc3)c2=O)c1 (centres undefined)	5.3	> 10000	4280	
O=c1c(-c2ccc(Cl)c(Cl)c2)cccn1C(CN1CCCC1)c1ccccc1 (centres undefined)	2.3	> 10000	2060	
O=c1c(-c2ccccc2C(F)(F)F)cccn1C(CN1CCCC1)c1ccccc1 (centres undefined)	5.7	> 10000	1680	
O=c1c(-c2cccc([N+](=O)[O-])c2)cccn1C(CN1CCCC1)c1ccccc1 (centres undefined)	2.2	> 10000	3910	
O=c1c(-c2ccccc2)cccn1C(CN1CCCC1)c1ccccc1 (centres undefined)	56.3	> 10000	> 10000	
O=c1c(-c2ccc3ccccc3c2)cccn1C(CN1CCCC1)c1ccccc1 (centres undefined)	31.9	> 10000	2680	
O=c1c(-c2cccs2)cccn1C(CN1CCCC1)c1ccccc1 (centres undefined)	1180			
O=c1c(-c2ccc(F)cc2)cccn1C(CN1CCCC1)c1ccccc1 (centres undefined)	34.8	> 10000	> 10000	
O=c1c(-c2cc(F)ccc2F)cccn1C(CN1CCCC1)c1ccccc1 (centres undefined)	22.5	> 10000	> 10000	
COc1ccc(F)cc1-c1cccn(C(CN2CCCC2)c2ccccc2)c1=O (centres undefined)	3.4	4350	3460	
O=c1c(-c2ccc(Cl)cc2)cccn1C(CN1CCCC1)c1ccccc1 (centres undefined)	5.5	> 10000	4840	
COc1ccc(-c2cccn(C(CN3CCCC3)c3ccccc3)c2=O)cc1 (centres undefined)	49.4	5210	1460	
O=c1c(-c2ccc(OC(F)(F)F)cc2)cccn1C(CN1CCCC1)c1ccccc1 (centres undefined)	34.2	> 10000	1100	
O=c1ccc(-c2ccc(Cl)cc2)cn1C(CN1CCCC1)c1ccccc1 (centres undefined)	524			
O=c1ccc(-c2ccc(Cl)c(Cl)c2)cn1C(CN1CCCC1)c1ccccc1 (centres undefined)	1490			
